According to patent US20240116985A1, “STAPLED PEPTIDES AND METHODS THEREOF” (priority 2020, published 2024):
Converted amounts (≈) assume the structure as drawn. Where two headings read alike, the source gives them in different places.

How the values were obtained:
[1] = target: T1, full-length beta-Catenin (Uniprot ID P35222) (Homo sapiens, UniProt P35222); experiment: Fluorescence polarization IC50 (beta-catenin / 5FAM-TCF4 10-53 competition); type: binding
T1 construct: 10 nM full-length beta-Catenin (Uniprot ID P35222)
T1 sequence (P35222 1-781): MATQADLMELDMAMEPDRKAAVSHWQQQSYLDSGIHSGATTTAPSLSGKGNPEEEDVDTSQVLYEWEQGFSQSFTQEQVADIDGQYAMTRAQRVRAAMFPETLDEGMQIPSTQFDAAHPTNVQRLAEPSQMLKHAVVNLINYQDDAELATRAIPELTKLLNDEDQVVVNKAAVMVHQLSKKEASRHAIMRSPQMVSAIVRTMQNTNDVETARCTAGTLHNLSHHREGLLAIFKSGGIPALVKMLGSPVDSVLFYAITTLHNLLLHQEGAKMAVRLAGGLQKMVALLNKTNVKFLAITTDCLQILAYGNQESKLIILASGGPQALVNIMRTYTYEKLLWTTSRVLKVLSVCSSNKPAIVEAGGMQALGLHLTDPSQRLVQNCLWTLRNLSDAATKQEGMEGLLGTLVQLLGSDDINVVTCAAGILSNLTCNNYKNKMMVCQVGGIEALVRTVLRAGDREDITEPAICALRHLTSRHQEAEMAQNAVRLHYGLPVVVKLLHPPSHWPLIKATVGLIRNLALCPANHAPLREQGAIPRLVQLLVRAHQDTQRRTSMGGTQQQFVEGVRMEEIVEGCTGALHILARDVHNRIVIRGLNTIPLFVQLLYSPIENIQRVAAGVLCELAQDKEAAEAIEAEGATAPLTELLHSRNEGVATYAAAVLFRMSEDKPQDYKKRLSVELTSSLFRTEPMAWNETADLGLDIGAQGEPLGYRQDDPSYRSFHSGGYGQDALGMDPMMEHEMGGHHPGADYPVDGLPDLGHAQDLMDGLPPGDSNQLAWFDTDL

CHI Log D procedure = type: physicochemical; conditions: for chromatographic logD: pH 7.4, CHI Log D; for CHI Log D: pH 7.4
Solubility in PBS = type: physicochemical
Procedure, shortened: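 Steps: ultracentrifuge the peptide PBS solution, inject the supernatant on HPLC, inject a 50 μM peptide DMSO solution as reference, then calculate solubility as area ratio (PBS/DMSO) × 50 uM.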

[2] = fluorescence polarization, read-out: beta-Catenin FP IC50

| SMILES | IC50 [1, 2] [nM] | chromatographic logD (CHI Log D procedure) | Solubility (Solubility in PBS; Solubility (uM)) [µM] | IC50 ([1]; read-out: FP EC50) [nM] | CHI Log D (CHI Log D procedure) | Solubility (Solubility in PBS) [µM] | IC50 ([1]; read-out: beta-Catenin FP IC50) [nM] |
| --- | --- | --- | --- | --- | --- | --- | --- |
| CC(=O)N1CCC[C@]12CC=CCCCC1(CCCC=CCCCCCC[C@@](C)(C(=O)N[C@@H](Cc3ccccc3)C(=O)N[C@@H](Cc3csc4ccccc34)C(=O)N[C@@H](Cc3c[nH]cn3)C(=O)N[C@@H](C)C(N)=O)NC(=O)[C@H](CC(N)=O)NC(=O)[C@H](Cc3ccccc3)NC(=O)[C@H](C)NC(=O)[C@H](C)NC(=O)[C@H](CCC(=O)O)NC(=O)[C@H](CC(=O)O)NC1=O)NC(=O)[C@H](CC(C)C)NC(=O)[C@H](CC(=O)O)NC2=O (stereo partly drawn) [I-738, Ac-PL3-Asp-Leu-B5-Asp-Glu-Ala-Ala-Phe-Asn-S8-Phe-BztA-His-Ala-NH2] | 63 | 2.46 | 41 (≈ 79.9 µg/mL) | – | – | – | – |
| CC(=O)N1CCC[C@]12CC=CCCCC1(CCCC=CCCCCCC[C@@](C)(C(=O)N[C@@H](Cc3ccccc3)C(=O)N[C@@H](Cc3csc4ccccc34)C(=O)N[C@@H](Cc3c[nH]cn3)C(=O)N[C@H](C)C(N)=O)NC(=O)[C@H](CC(N)=O)NC(=O)[C@H](Cc3ccccc3)NC(=O)[C@H](C)NC(=O)[C@H](C)NC(=O)[C@H](CCC(=O)O)NC(=O)[C@H](CC(=O)O)NC1=O)NC(=O)[C@H](CC(C)C)NC(=O)[C@H](CC(=O)O)NC2=O (stereo partly drawn) [I-739, Ac-PL3-Asp-Leu-B5-Asp-Glu-Ala-Ala-Phe-Asn-S8-Phe-BztA-His-dAla-NH2] | 53 | 2.41 | – | – | – | 10 (≈ 19.5 µg/mL) | – |
| CC[C@H](C)[C@H](NC(=O)[C@H](Cc1c[nH]cn1)NC(=O)[C@H](Cc1csc2ccccc12)NC(=O)[C@H](Cc1ccccc1)NC(=O)[C@]1(C)CCCCCCC=CCCCC2(CCCC=CC[C@]3(CCCN3C(C)=O)C(=O)N[C@@H](CC(=O)O)C(=O)N[C@@H](CC(C)C)C(=O)N2)C(=O)N[C@@H](CC(=O)O)C(=O)N[C@@H](CCC(=O)O)C(=O)N[C@@H](C)C(=O)N[C@@H](C)C(=O)N[C@@H](Cc2ccccc2)C(=O)N[C@@H](CC(N)=O)C(=O)N1)C(N)=O (stereo partly drawn) [I-741, Ac-PL3-Asp-Leu-B5-Asp-Glu-Ala-Ala-Phe-Asn-S8-Phe-BztA-His-Ile-NH2] | 226 | – | – | 226 | 2.915 | 10 (≈ 19.9 µg/mL) | – |
| CC[C@@H](C)[C@@H](NC(=O)[C@H](Cc1c[nH]cn1)NC(=O)[C@H](Cc1csc2ccccc12)NC(=O)[C@H](Cc1ccccc1)NC(=O)[C@]1(C)CCCCCCC=CCCCC2(CCCC=CC[C@]3(CCCN3C(C)=O)C(=O)N[C@@H](CC(=O)O)C(=O)N[C@@H](CC(C)C)C(=O)N2)C(=O)N[C@@H](CC(=O)O)C(=O)N[C@@H](CCC(=O)O)C(=O)N[C@@H](C)C(=O)N[C@@H](C)C(=O)N[C@@H](Cc2ccccc2)C(=O)N[C@@H](CC(N)=O)C(=O)N1)C(N)=O (stereo partly drawn) [I-742, Ac-PL3-Asp-Leu-B5-Asp-Glu-Ala-Ala-Phe-Asn-S8-Phe-BztA-His-dIle-NH2] | 159 | 2.8 | 27 (≈ 53.8 µg/mL) | – | – | – | – |
| CC(=O)N1CCC[C@]12CC=CCCCC1(CCCC=CCCCCCC[C@@](C)(C(=O)N[C@@H](Cc3ccccc3)C(=O)N[C@@H](Cc3csc4ccccc34)C(=O)N[C@@H](Cc3c[nH]cn3)C(=O)NC(C)(C)C(N)=O)NC(=O)[C@H](CC(N)=O)NC(=O)[C@H](Cc3ccccc3)NC(=O)[C@H](C)NC(=O)[C@H](C)NC(=O)[C@H](CCC(=O)O)NC(=O)[C@H](CC(=O)O)NC1=O)NC(=O)[C@H](CC(C)C)NC(=O)[C@H](CC(=O)O)NC2=O (stereo partly drawn) [I-743, Ac-PL3-Asp-Leu-B5-Asp-Glu-Ala-Ala-Phe-Asn-S8-Phe-BztA-His-Aib-NH2] | 85 | 2.6 | 29 (≈ 56.9 µg/mL) | – | – | – | – |
| CC(=O)N1CCC[C@]12CC=CCCCC1(CCCC=CCCCCCC[C@@](C)(C(=O)N[C@@H](Cc3ccccc3)C(=O)N[C@@H](Cc3csc4ccccc34)C(=O)N[C@H](Cc3c[nH]cn3)C(N)=O)NC(=O)[C@H](CC(N)=O)NC(=O)[C@H](Cc3ccccc3)NC(=O)[C@H](C)NC(=O)[C@H](C)NC(=O)[C@H](CCC(=O)O)NC(=O)[C@H](CC(=O)O)NC1=O)NC(=O)[C@H](CC(C)C)NC(=O)[C@H](CC(=O)O)NC2=O (stereo partly drawn) [I-745, Ac-PL3-Asp-Leu-B5-Asp-Glu-Ala-Ala-Phe-Asn-S8-Phe-BztA-dHis-NH2] | 80 | – | – | 80 | 2.61 | 10 (≈ 18.8 µg/mL) | – |
| CC(=O)N1CCC[C@]12CC=CCCCC1(CCCC=CCCCCCC[C@@](C)(C(=O)N[C@@H](Cc3ccccc3)C(=O)N[C@@H](Cc3csc4ccccc34)C(=O)N(C)[C@@H](Cc3cnc[nH]3)C(N)=O)NC(=O)[C@H](CC(N)=O)NC(=O)[C@H](Cc3ccccc3)NC(=O)[C@H](C)NC(=O)[C@H](C)NC(=O)[C@H](CCC(=O)O)NC(=O)[C@H](CC(=O)O)NC1=O)NC(=O)[C@H](CC(C)C)NC(=O)[C@H](CC(=O)O)NC2=O (stereo partly drawn) [I-747, Ac-PL3-Asp-Leu-B5-Asp-Glu-Ala-Ala-Phe-Asn-S8-Phe-BztA-NMeHis-NH2] | 2390 | – | – | 2390 | 2.492 | 15 (≈ 28.4 µg/mL) | – |
| CC(=O)N1CCC[C@]12CC=CCCCC1(CCCC=CCCCCCC[C@@](C)(C(=O)N[C@@H](Cc3ccccc3)C(=O)N[C@@H](Cc3csc4ccccc34)C(=O)N[C@@H](C(N)=O)[C@H](C)O)NC(=O)[C@H](CC(N)=O)NC(=O)[C@H](Cc3ccccc3)NC(=O)[C@H](C)NC(=O)[C@H](C)NC(=O)[C@H](CCC(=O)O)NC(=O)[C@H](CC(=O)O)NC1=O)NC(=O)[C@H](CC(C)C)NC(=O)[C@H](CC(=O)O)NC2=O (stereo partly drawn) [I-755, Ac-PL3-Asp-Leu-B5-Asp-Glu-Ala-Ala-Phe-Asn-S8-Phe-BztA-dThr-NH2] | – | – | – | 88 | 2.684 | 47 (≈ 86.6 µg/mL) | 88 |

Second part, the compound after the results:

| IC50 [1, 2] [nM] | chromatographic logD (CHI Log D procedure) | Solubility (Solubility in PBS; Solubility (uM)) [µM] | IC50 ([1]; read-out: FP EC50) [nM] | CHI Log D (CHI Log D procedure) | Solubility (Solubility in PBS) [µM] | IC50 ([1]; read-out: beta-Catenin FP IC50) [nM] | SMILES |
| --- | --- | --- | --- | --- | --- | --- | --- |
| 5000 | 2.41 | 26 (≈ 48.4 µg/mL) | – | – | – | – | CC[C@H](C)[C@@H]1NC(=O)[C@H](CC(=O)O)NC(=O)[C@]2(CC=CCCCC3(CCCC=CCCCCCC[C@@](C)(C(=O)N[C@@H](Cc4ccccc4)C(=O)N[C@@H](Cc4csc5ccccc45)C(=O)N[C@@H](CCC(N)=O)C(N)=O)NC(=O)[C@H](CCC(N)=O)NC(=O)[C@H](CC(C)(C)C)NC(=O)[C@H](C)NC(=O)[C@H](C)NC(=O)[C@H](CCC(=O)O)NC(=O)[C@H](CC(=O)O)NC3=O)NC1=O)CCCN2C(C)=O (stereo partly drawn) [I-727, Ac-PL3-Asp-Ile-B5-Asp-Glu-Ala-Ala-Npg-Gln-S8-Phe-BztA-Gln-NH2] |
| 289 | 2.35 | 38 (≈ 70.3 µg/mL) | – | – | – | – | CCCC[C@@H]1NC(=O)[C@H](C)NC(=O)[C@H](C)NC(=O)[C@H](CCC(=O)O)NC(=O)[C@H](CC(=O)O)NC(=O)C2(CCCC=CCCCCCC[C@@](C)(C(=O)N[C@@H](Cc3ccccc3)C(=O)N[C@@H](Cc3csc4ccccc34)C(=O)N[C@@H](CCC(N)=O)C(N)=O)NC(=O)[C@H](CCC(N)=O)NC1=O)CCCC=CC[C@]1(CCCN1C(C)=O)C(=O)N[C@@H](CC(=O)O)C(=O)N[C@@H]([C@@H](C)CC)C(=O)N2 (stereo partly drawn) [I-728, Ac-PL3-Asp-Ile-B5-Asp-Glu-Ala-Ala-nLeu-Gln-S8-Phe-BztA-Gln-NH2] |
| 4260 | – | – | 4260 | 2.154 | 43 (≈ 85.2 µg/mL) | – | CC[C@H](C)[C@H](NC(=O)[C@H](CCC(N)=O)NC(=O)[C@H](Cc1csc2ccccc12)NC(=O)[C@H](Cc1ccccc1)NC(=O)[C@]1(C)CCCCCCC=CCCCC2(CCCC=CC[C@]3(CCCN3C(C)=O)C(=O)N[C@@H](CC(=O)O)C(=O)N[C@@H](CC(C)C)C(=O)N2)C(=O)N[C@@H](CC(=O)O)C(=O)N[C@@H](CCC(=O)O)C(=O)N[C@@H](C)C(=O)N[C@@H](C)C(=O)N[C@@H](Cc2ccccc2)C(=O)N[C@@H](CC(N)=O)C(=O)N1)C(N)=O (stereo partly drawn) [I-733, Ac-PL3-Asp-Leu-B5-Asp-Glu-Ala-Ala-Phe-Asn-S8-Phe-BztA-Gln-Ile-NH2] |
| 246 | – | – | 246 | 2.738 | 43 (≈ 85.2 µg/mL) | – | CC[C@@H](C)[C@@H](NC(=O)[C@H](CCC(N)=O)NC(=O)[C@H](Cc1csc2ccccc12)NC(=O)[C@H](Cc1ccccc1)NC(=O)[C@]1(C)CCCCCCC=CCCCC2(CCCC=CC[C@]3(CCCN3C(C)=O)C(=O)N[C@@H](CC(=O)O)C(=O)N[C@@H](CC(C)C)C(=O)N2)C(=O)N[C@@H](CC(=O)O)C(=O)N[C@@H](CCC(=O)O)C(=O)N[C@@H](C)C(=O)N[C@@H](C)C(=O)N[C@@H](Cc2ccccc2)C(=O)N[C@@H](CC(N)=O)C(=O)N1)C(N)=O (stereo partly drawn) [I-735, Ac-PL3-Asp-Leu-B5-Asp-Glu-Ala-Ala-Phe-Asn-S8-Phe-BztA-Gln-dIle-NH2] |
| 353 | 2.73 | 44 (≈ 86 µg/mL) | – | – | – | – | CC(=O)N1CCC[C@]12CC=CCCCC1(CCCC=CCCCCCC[C@@](C)(C(=O)N[C@@H](Cc3ccccc3)C(=O)N[C@@H](Cc3csc4ccccc34)C(=O)N[C@@H](CCC(N)=O)C(=O)NC(C)(C)C(N)=O)NC(=O)[C@H](CC(N)=O)NC(=O)[C@H](Cc3ccccc3)NC(=O)[C@H](C)NC(=O)[C@H](C)NC(=O)[C@H](CCC(=O)O)NC(=O)[C@H](CC(=O)O)NC1=O)NC(=O)[C@H](CC(C)C)NC(=O)[C@H](CC(=O)O)NC2=O (stereo partly drawn) [I-737, Ac-PL3-Asp-Leu-B5-Asp-Glu-Ala-Ala-Phe-Asn-S8-Phe-BztA-Gln-Aib-NH2] |
